Laboratory results as given in patent US20220175693A1, “DIETARY SUPPLEMENT COMPRISING LUTEIN FOR TELOMERE PROTECTION, AND METHOD FOR PRODUCTION THEREOF” (BIOGEN EXTRACTS PRIVATE LIMITED, priority 2019, published 2022).

Tested on: human adult primary fibroblast cells
Assay: Proliferative analysis (population doubling, cell counts per passage) under standard and oxidative stress conditions
Type: cell-based
Experimental: Analysis of cellular proliferation rate and telomere length in cultures of human adult primary fibroblast cells treated with lutein under standard and oxidative stress conditions. Primary cultures of adult human fibroblast were established. Cells are seeded at 2×10^3 cells/cm2 in GlutaMax™ high glucose Dulbecco's modified Eagle's medium (DMEM, Gibco®), and supplemented with 10% fetal bovine serum (FBS, HyClone, Thermo Scientific), penicillin (100 U/ml) and reptomycin (1000 U/ml). Media is renewed every 2-3 days and cells passaged at sub-confluence (70-80%) every 4-5 days. Compounds or vehicle control are added to the cells in culture. Cell growth is monitored for each condition by counting cell numbers at each passage using a Countess™ cell counter (Invitrogen). Population doubling (PD) was calculated with the formula PD=(log (Nn/Nn-1))/log 2 where n is the passage; and N the number of cells. One PD is equivalent to one round of cell replication. Eight independent condition were evaluated by proliferative Analysis: Standard cell culture condition+Lutein−10 μg/ml (LUT10) Standard cell culture condition+Lutein−5 μg/ml (LUT5) Standard cell culture condition+Lutein−1 μg/ml (LUT1) Standard cell culture condition+Lutein−10 μg/ml+10 μM H2O2 (LUT10+H2O2) Standard cell culture condition+Lutein−5 μg/ml+10 μM H2O2(LUT5+H2O2) Standard cell culture condition+Lutein−1 μg/ml+10 μM H2O2 (LUT1+H2O2) Cells were expanded during eight weeks under standard and oxidative (10 μM H2O2) cell culture condition as described previously. Fresh treatments were prepared and added to the cells at every passage and also when media was renewed. Stock solution of 10 mg/ml of the compound was prepared in DMSO and the different treatments were prepared from that stock.

[1] = Lutein 5 μg/ml, standard culture, week 1 (P1)
[2] = Lutein 5 μg/ml, standard culture, week 2 (P2)
[3] = Lutein 5 μg/ml, standard culture, week 3 (P3)
[4] = Lutein 5 μg/ml, standard culture, week 4 (P4)
[5] = Lutein 5 μg/ml, standard culture, week 5 (P5)
[6] = Lutein 5 μg/ml, standard culture, week 6 (P6)
[7] = Lutein 5 μg/ml, standard culture, week 7 (P7)
[8] = Lutein 5 μg/ml, standard culture, week 8 (P8)
[9] = Lutein 10 μg/ml + 10 μM H2O2, week 1 (P1)
[10] = Lutein 10 μg/ml + 10 μM H2O2, week 2 (P2)
[11] = Lutein 10 μg/ml + 10 μM H2O2, week 3 (P3)
[12] = Lutein 10 μg/ml + 10 μM H2O2, week 4 (P4)
[13] = Lutein 10 μg/ml + 10 μM H2O2, week 5 (P5)
[14] = Lutein 10 μg/ml + 10 μM H2O2, week 6 (P6)
[15] = Lutein 10 μg/ml + 10 μM H2O2, week 7 (P7)
[16] = Lutein 10 μg/ml + 10 μM H2O2, week 8 (P8)
[17] = Lutein 10 μg/ml, standard culture, week 1 (P1)
[18] = Lutein 10 μg/ml, standard culture, week 2 (P2)
[19] = Lutein 10 μg/ml, standard culture, week 3 (P3)
[20] = Lutein 10 μg/ml, standard culture, week 4 (P4)
[21] = Lutein 10 μg/ml, standard culture, week 5 (P5)
[22] = Lutein 10 μg/ml, standard culture, week 6 (P6)
[23] = Lutein 10 μg/ml, standard culture, week 7 (P7)
[24] = Lutein 10 μg/ml, standard culture, week 8 (P8)

CC1=C[C@H](O)CC(C)(C)[C@H]1/C=C/C(C)=C/C=C/C(C)=C/C=C/C=C(C)/C=C/C=C(C)/C=C/C1=C(C)C[C@@H](O)CC1(C)C [Lutein]
Population Doubling per passage [1]: 3.81 | Total number of cells per passage [1]: 2.10E+06 | Cumulative Population Doubling per passage [2]: 6.47 | Population Doubling per passage [2]: 2.65 | Total number of cells per passage [2]: 1.33E+07 | Cumulative Population Doubling per passage [3]: 9.12 | Population Doubling per passage [3]: 2.65 | Total number of cells per passage [3]: 8.33E+07 | Cumulative Population Doubling (Table 7A) (Lutein 5 μg/ml, standard culture, week 4): 12.5 | Cumulative Population Doubling per passage [4]: 12.53 | Population Doubling per passage [4]: 3.42 | Total number of cells per passage [4]: 8.89E+09 | Cumulative Population Doubling per passage [5]: 15.02 | Population Doubling per passage [5]: 2.49 | Total number of cells per passage [5]: 4.98E+09 | Cumulative Population Doubling per passage [6]: 16.47 | Population Doubling per passage [6]: 1.45 | Total number of cells per passage [6]: 1.36E+10 | Cumulative Population Doubling per passage [7]: 18.15 | Population Doubling per passage [7]: 1.68 | Total number of cells per passage [7]: 4.35E+10 | Cumulative Population Doubling (Table 7A) (Lutein 5 μg/ml, standard culture, week 8): 21.3 | Cumulative Population Doubling per passage [8]: 21.26 | Population Doubling per passage [8]: 3.12 | Total number of cells per passage [8]: 3.77E+11 | Cumulative Population Doubling per passage [9]: 3.50 | Population Doubling per passage [9]: 3.50 | Total number of cells per passage [9]: 1.70E+06 | Cumulative Population Doubling per passage [10]: 6.92 | Population Doubling per passage [10]: 3.42 | Total number of cells per passage [10]: 1.81E+07 | Cumulative Population Doubling per passage [11]: 9.65 | Population Doubling per passage [11]: 2.74 | Total number of cells per passage [11]: 1.21E+08 | Cumulative Population Doubling (Table 7A) (Lutein 10 μg/ml + 10 μM H2O2, week 4): 13.1 | Cumulative Population Doubling per passage [12]: 13.07 | Population Doubling per passage [12]: 3.42 | Total number of cells per passage [12]: 1.29E+09 | Cumulative Population Doubling per passage [13]: 14.97 | Population Doubling per passage [13]: 1.90 | Total number of cells per passage [13]: 4.81E+09 | Cumulative Population Doubling per passage [14]: 16.97 | Population Doubling per passage [14]: 2.00 | Total number of cells per passage [14]: 1.93E+09 | Cumulative Population Doubling per passage [15]: 18.52 | Population Doubling per passage [15]: 1.55 | Total number of cells per passage [15]: 5.65E+10 | Cumulative Population Doubling (Table 7A) (Lutein 10 μg/ml + 10 μM H2O2, week 8): 20.8 | Cumulative Population Doubling per passage [16]: 20.83 | Population Doubling per passage [16]: 2.30 | Total number of cells per passage [16]: 2.79E+11 | Cumulative Population Doubling per passage [17]: 3.58 | Population Doubling per passage [17]: 3.58 | Total number of cells per passage [17]: 1.80E+06 | Cumulative Population Doubling per passage [18]: 6.70 | Population Doubling per passage [18]: 3.12 | Total number of cells per passage [18]: 1.56E+07 | Cumulative Population Doubling per passage [19]: 9.82 | Population Doubling per passage [19]: 3.12 | Total number of cells per passage [19]: 1.35E+08 | Cumulative Population Doubling (Table 7A) (Lutein 10 μg/ml, standard culture, week 4): 13.3 | Cumulative Population Doubling per passage [20]: 13.32 | Population Doubling per passage [20]: 3.50 | Total number of cells per passage [20]: 1.53E+09 | Cumulative Population Doubling per passage [21]: 15.75 | Population Doubling per passage [21]: 2.43 | Total number of cells per passage [21]: 8.27E+09 | Cumulative Population Doubling per passage [22]: 18.49 | Population Doubling per passage [22]: 2.74 | Total number of cells per passage [22]: 5.52E+10 | Cumulative Population Doubling per passage [23]: 21.18 | Population Doubling per passage [23]: 2.69 | Total number of cells per passage [23]: 3.57E+11 | Cumulative Population Doubling (Table 7A) (Lutein 10 μg/ml, standard culture, week 8): 23.9 | Cumulative Population Doubling per passage [24]: 23.92 | Population Doubling per passage [24]: 2.74 | Total number of cells per passage [24]: 2.38E+12 | Proliferation rate compared to control group (H2O2) (Lutein 10, 5 and 1 μg/ml + 10 μM H2O2 (oxidative culture conditions), after eight weeks): increase in proliferation rate | Proliferation rate compared to control (Ctrl) (Lutein 10, 5 and 1 μg/ml, standard culture conditions, after eight weeks): no difference
